# Reference: ChEMBL document CHEMBL1240303, “Inhibiting transcription of chromosomal DNA with antigene peptide nucleic acids” (2005)
# The source made the active and inactive calls. No cut-off for these calls is given here.
# Key:
# T47D [1] = test: Inhibition of human progesterone receptor A protein expression transfected in human T47D cells at 200 nM by Western blot; format: functional
# T47D [2] = test: Inhibition of human progesterone receptor B protein expression transfected in human T47D cells at 200 nM by Western blot; format: functional
# T47D [3] = test: Inhibition of human progesterone receptor A protein expression transfected in human T47D cells at 200 nM in presence of 10 nM of estradiol by Western blot; format: functional, cell-based
# T47D [4] = test: Inhibition of human progesterone receptor B protein expression transfected in human T47D cells at 200 nM in presence of 10 nM of estradiol by Western blot; format: functional, cell-based
# T47D [5] = test: Inhibition of human progesterone receptor A gene expression transfected in human T47D cells at 200 nM by RT-PCR; format: functional, cell-based
# T47D [6] = test: Inhibition of human progesterone receptor B gene expression transfected in human T47D cells at 200 nM by RT-PCR; format: functional, cell-based
# T47D [7] = test: Induction of morphology changes in human T47D cells expressing human progesterone receptor assessed as increase in cell height by confocal microscopy; format: functional, cell-based
# T47D [8] = test: Reduction in cell proliferation of human T47D cells expressing human progesterone receptor by FACS method; format: functional, cell-based
# T47D [9] = test: Increase in Ezrin mRNA expression in human T47D cells expressing human progesterone receptor by RT-PCR relative to untreated control; format: functional
smiles,measurement,setting,value
Cc1cn(CC(=O)N(CCNC(=O)CN(CCNC(=O)CN(CCNC(=O)CN(CCNC(=O)CN(CCNC(=O)CN(CCNC(=O)CN(CCNC(=O)CN(CCNC(=O)CN(CCNC(=O)CN(CCNC(=O)CN(CCNC(=O)CN(CCNC(=O)CN(CCNC(=O)CN(CCNC(=O)CN(CCNC(=O)CNC(=O)[C@@H](N)CCCCN)C(=O)Cn2ccc(N)nc2=O)C(=O)Cn2ccc(N)nc2=O)C(=O)Cn2cnc3c(N)ncnc32)C(=O)Cn2cnc3c(=O)[nH]c(N)nc32)C(=O)Cn2cc(C)c(=O)[nH]c2=O)C(=O)Cn2ccc(N)nc2=O)C(=O)Cn2ccc(N)nc2=O)C(=O)Cn2cnc3c(N)ncnc32)C(=O)Cn2ccc(N)nc2=O)C(=O)Cn2cnc3c(N)ncnc32)C(=O)Cn2cnc3c(=O)[nH]c(N)nc32)C(=O)Cn2ccc(N)nc2=O)C(=O)Cn2cc(C)c(=O)[nH]c2=O)C(=O)Cn2cnc3c(=O)[nH]c(N)nc32)CC(=O)NCCN(CC(=O)NCCN(CC(=O)NCCN(CC(=O)NCCN(CC(=O)N[C@@H](CCCCN)C(=O)O)C(=O)Cn2cc(C)c(=O)[nH]c2=O)C(=O)Cn2ccc(N)nc2=O)C(=O)Cn2cnc3c(N)ncnc32)C(=O)Cn2ccc(N)nc2=O)c(=O)[nH]c1=O,inhibition at 0.2 µM,T47D [1],75%
same,inhibition at 0.2 µM,T47D [2],75%
same,inhibition,T47D [3],Active
same,inhibition,T47D [4],Active
same,inhibition,T47D [5],inactive
same,inhibition,T47D [6],inactive
same,Activity,T47D [7],Active
same,Activity,T47D [8],Active
same,fold change (FC),T47D [9],3.5
Cc1cn([C@H]2C[C@H](OP(=O)(O)OC[C@H]3O[C@@H](n4cc(C)c(=O)[nH]c4=O)C[C@@H]3O)[C@@H](COP(=O)(O)O[C@H]3[C@@H](O)[C@H](n4ccc(=O)[nH]c4=O)O[C@@H]3COP(=O)(O)O[C@H]3[C@@H](O)[C@H](n4ccc(N)nc4=O)O[C@@H]3COP(=O)(O)O[C@H]3[C@@H](O)[C@H](n4cnc5c(N)ncnc54)O[C@@H]3COP(=O)(O)O[C@H]3C[C@H](n4cnc5c(N)ncnc54)O[C@@H]3COP(=O)(O)O[C@H]3[C@@H](O)[C@H](n4ccc(N)nc4=O)O[C@@H]3COP(=O)(O)O[C@H]3C[C@H](n4cnc5c(N)ncnc54)O[C@@H]3COP(=O)(O)O[C@H]3[C@@H](O)[C@H](N4CC=C(N)NC4=O)O[C@@H]3COP(=O)(O)O[C@H]3[C@@H](O)[C@H](n4cnc5c(=O)[nH]c(N)nc54)O[C@@H]3COP(=O)(O)O[C@H]3[C@@H](O)[C@H](n4cnc5c(N)ncnc54)O[C@@H]3COP(=O)(O)O[C@H]3[C@@H](O)[C@H](N4CC=C(N)NC4=O)O[C@@H]3COP(=O)(O)O[C@H]3[C@@H](O)[C@H](n4cnc5c(=O)[nH]c(N)nc54)O[C@@H]3COP(=O)(O)O[C@H]3[C@@H](O)[C@H](n4cnc5c(=O)[nH]c(N)nc54)O[C@@H]3COP(=O)(O)O[C@H]3[C@@H](O)[C@H](n4cnc5c(=O)[nH]c(N)nc54)O[C@@H]3COP(=O)(O)O[C@H]3C[C@H](n4cnc5c(N)ncnc54)O[C@@H]3COP(=O)(O)O[C@H]3[C@@H](O)[C@H](n4cnc5c(N)ncnc54)O[C@@H]3COP(=O)(O)O[C@H]3[C@@H](O)[C@H](n4cnc5c(=O)[nH]c(N)nc54)O[C@@H]3COP(=O)(O)O[C@H]3[C@@H](O)[C@H](n4cnc5c(=O)[nH]c(N)nc54)O[C@@H]3COP(=O)(O)O[C@H]3[C@@H](O)[C@H](n4ccc(=O)[nH]c4=O)O[C@@H]3COP(=O)(O)O[C@H]3[C@@H](O)[C@H](n4cnc5c(N)ncnc54)O[C@@H]3CO)O2)c(=O)[nH]c1=O,Activity,T47D [7],Active
same,Activity,T47D [8],Active
Cc1cn([C@@H]2O[C@H](COP(=O)(O)O[C@H]3[C@@H](O)[C@H](n4cnc5c(=O)[nH]c(N)nc54)O[C@@H]3COP(=O)(O)O[C@H]3[C@@H](O)[C@H](n4ccc(=O)[nH]c4=O)O[C@@H]3COP(=O)(O)O[C@H]3C[C@H](n4cnc5c(N)ncnc54)O[C@@H]3COP(=O)(O)O[C@H]3[C@@H](O)[C@H](N4CC=C(N)NC4=O)O[C@@H]3COP(=O)(O)O[C@H]3[C@@H](O)[C@H](n4ccc(=O)[nH]c4=O)O[C@@H]3COP(=O)(O)O[C@H]3[C@@H](O)[C@H](N4CC=C(N)NC4=O)O[C@@H]3COP(=O)(O)O[C@H]3C[C@H](n4cnc5c(=O)[nH]c(N)nc54)O[C@@H]3COP(=O)(O)O[C@H]3[C@@H](O)[C@H](n4ccc(N)nc4=O)O[C@@H]3COP(=O)(O)O[C@H]3[C@@H](O)[C@H](n4ccc(N)nc4=O)O[C@@H]3COP(=O)(O)O[C@H]3[C@@H](O)[C@H](n4ccc(N)nc4=O)O[C@@H]3COP(=O)(O)O[C@H]3[C@@H](O)[C@H](n4ccc(N)nc4=O)O[C@@H]3COP(=O)(O)O[C@H]3[C@@H](O)[C@H](n4ccc(=O)[nH]c4=O)O[C@@H]3COP(=O)(O)O[C@H]3[C@@H](O)[C@H](n4cnc5c(=O)[nH]c(N)nc54)O[C@@H]3COP(=O)(O)O[C@H]3[C@@H](O)[C@H](n4ccc(=O)[nH]c4=O)O[C@@H]3COP(=O)(O)O[C@H]3C[C@H](n4ccc(=O)[nH]c4=O)O[C@@H]3COP(=O)(O)O[C@H]3[C@@H](O)[C@H](n4cnc5c(=O)[nH]c(N)nc54)O[C@@H]3COP(=O)(O)O[C@H]3[C@@H](O)[C@H](n4ccc(=O)[nH]c4=O)O[C@@H]3COP(=O)(O)O[C@H]3[C@@H](O)[C@H](n4cnc5c(=O)[nH]c(N)nc54)O[C@@H]3COP(=O)(O)O[C@H]3[C@@H](O)[C@H](n4cnc5c(=O)[nH]c(N)nc54)O[C@@H]3CO)[C@@H](OP(=O)(O)OC[C@H]3O[C@@H](n4cc(C)c(=O)[nH]c4=O)C[C@@H]3O)[C@H]2O)c(=O)[nH]c1=O,Activity,T47D [7],Active
same,Activity,T47D [8],Active
same,fold change (FC),T47D [9],5.5
Cc1cn(CC(=O)N(CCNC(=O)CNC(=O)[C@@H](N)CCCCN)CC(=O)NCCN(CC(=O)NCCN(CC(=O)NCCN(CC(=O)NCCN(CC(=O)NCCN(CC(=O)NCCN(CC(=O)NCCN(CC(=O)NCCN(CC(=O)NCCN(CC(=O)NCCN(CC(=O)NCCN(CC(=O)NCCN(CC(=O)NCCN(CC(=O)NCCN(CC(=O)NCCN(CC(=O)NCCN(CC(=O)NCCN(CC(=O)NCCN(CC(=O)N[C@@H](CCCCN)C(=O)O)C(=O)Cn2ccc(N)nc2=O)C(=O)Cn2cnc3c(=O)[nH]c(N)nc32)C(=O)Cn2cnc3c(=O)[nH]c(N)nc32)C(=O)Cn2cc(C)c(=O)[nH]c2=O)C(=O)Cn2cnc3c(N)ncnc32)C(=O)Cn2cnc3c(=O)[nH]c(N)nc32)C(=O)Cn2cc(C)c(=O)[nH]c2=O)C(=O)Cn2cc(C)c(=O)[nH]c2=O)C(=O)Cn2cnc3c(=O)[nH]c(N)nc32)C(=O)Cn2cnc3c(N)ncnc32)C(=O)Cn2cnc3c(=O)[nH]c(N)nc32)C(=O)Cn2ccc(N)nc2=O)C(=O)Cn2ccc(N)nc2=O)C(=O)Cn2cnc3c(N)ncnc32)C(=O)Cn2cnc3c(=O)[nH]c(N)nc32)C(=O)Cn2ccc(N)nc2=O)C(=O)Cn2cnc3c(N)ncnc32)C(=O)Cn2ccc(N)nc2=O)c(=O)[nH]c1=O,inhibition,T47D [1],inactive
same,inhibition,T47D [2],inactive
same,inhibition,T47D [5],inactive
same,inhibition,T47D [6],inactive
same,Activity,T47D [7],inactive
same,Activity,T47D [8],inactive
same,Activity,T47D [9],inactive
Cc1cn(CC(=O)N(CCNCC(=O)N(CCNC(=O)CN(CCNC(=O)CN(CCNC(=O)CN(CCNC(=O)CN(CCNC(=O)CN(CCNC(=O)CN(CCNC(=O)CN(CCNC(=O)CN(CCNC(=O)CN(CCNC(=O)CN(CCNC(=O)CN(CCNC(=O)CNC(=O)[C@@H](N)CCCCN)C(=O)Cn2cc(C)c(=O)[nH]c2=O)C(=O)Cn2cnc3nc(N)[nH]c(=O)c32)C(=O)Cn2c(N)ccnc2=O)C(=O)Cn2c(N)ccnc2=O)C(=O)Cn2c(N)ccnc2=O)C(=O)Cn2c(N)ccnc2=O)C(=O)Cn2c(N)ccnc2=O)C(=O)Cn2cnc3c(N)ncnc32)C(=O)Cn2cnc3nc(N)[nH]c(=O)c32)C(=O)Cn2cnc3c(N)ncnc32)C(=O)Cn2c(N)ccnc2=O)C(=O)Cn2cnc3c(N)ncnc32)CC(=O)NCCN(CC(=O)NCCN(CC(=O)NCCN(CC(=O)NCCN(CC(=O)NCCN(CC(=O)NCCN(CC(=O)N[C@@H](CCCCN)C(=O)O)C(=O)Cn2c(N)ccnc2=O)C(=O)Cn2cnc3nc(N)[nH]c(=O)c32)C(=O)Cn2cnc3nc(N)[nH]c(=O)c32)C(=O)Cn2cc(C)c(=O)[nH]c2=O)C(=O)Cn2c(N)ccnc2=O)C(=O)Cn2cnc3nc(N)[nH]c(=O)c32)c(=O)[nH]c1=O,inhibition,T47D [1],inactive
same,inhibition,T47D [2],inactive
Cc1cn(CC(=O)N(CCNC(=O)CN(CCNC(=O)CN(CCNC(=O)CN(CCNC(=O)CN(CCNC(=O)CN(CCNC(=O)CN(CCNC(=O)CNC(=O)[C@@H](N)CCCCN)C(=O)Cn2c(N)ccnc2=O)C(=O)Cn2cnc3c(N)ncnc32)C(=O)Cn2c(N)ccnc2=O)C(=O)Cn2cnc3nc(N)[nH]c(=O)c32)C(=O)Cn2cnc3c(N)ncnc32)C(=O)Cn2cc(C)c(=O)[nH]c2=O)CC(=O)NCCN(CC(=O)NCCN(CC(=O)NCCN(CC(=O)NCCN(CC(=O)NCCN(C(=O)CNCCN(CC(=O)NCCN(CC(=O)NCCN(CC(=O)NCCN(CC(=O)NCCN(CC(=O)NCCN(CC(=O)NCCN(CC(=O)N[C@@H](CCCCN)C(=O)O)C(=O)Cn2cc(C)c(=O)[nH]c2=O)C(=O)Cn2cc(C)c(=O)[nH]c2=O)C(=O)Cn2cc(C)c(=O)[nH]c2=O)C(=O)Cn2cnc3nc(N)[nH]c(=O)c32)C(=O)Cn2cc(C)c(=O)[nH]c2=O)C(=O)Cn2cnc3c(N)ncnc32)C(=O)Cn2c(N)ccnc2=O)C(=O)Cn2cnc3nc(N)[nH]c(=O)c32)C(=O)Cn2cc(C)c(=O)[nH]c2=O)C(=O)Cn2c(N)ccnc2=O)C(=O)Cn2cc(C)c(=O)[nH]c2=O)C(=O)Cn2cc(C)c(=O)[nH]c2=O)c(=O)[nH]c1=O,inhibition,T47D [1],inactive
same,inhibition,T47D [2],inactive
same,Activity,T47D [7],inactive
same,Activity,T47D [8],inactive
